Results taken from paper PMC5601738, “Facile total synthesis of lysicamine and the anticancer activities of the Ru^II, Rh^III, Mn^II and Zn^II complexes of lysicamine” (Oncotarget, 2017).
Several values for one entry are separate records, joined by “and”; a condition that tells them apart may be missing. Equal entries are not always repeated.

Assays:
HepG2 cells [1] = experiment: ROS, intracellular Ca2+ and mitochondrial membrane potential (DCFH-DA, Fluo-3 AM, JC-1); conditions: HepG2, 24 h; 2 at 3.5, 7.0, […]; 3 at 7.0, 14.0, 28.0 μM
Experimental: The changes in the ROS level, intracellular Ca^2+ and loss of ΔΨm in the HepG2 cells were detected by the DCFH-DA, Fluo-3 AM, and JC-1 fluorescent probes, respectively (see in Figure 5A). Green fluorescence represented higher ROS levels, more intracellular Ca^2+, and reduced ΔΨm.
Measurement of oxygen species (ROS), Determination of cell cycle and apoptotic related
intracellular Ca2+ and mitochondrial membrane proteins
and then resuspended in 1mL of DCFH-DA (100 μM) onto a PVDF membrane.
cytometry or fluorescence microscope.

HepG2 cells [2] = experiment: Cell cycle analysis by flow cytometry; format: cell-based, human
BEL-7404 = experiment: MTT assay, BEL-7404 cells; format: cell-based, human; conditions: 48 h
ct-DNA = experiment: CD absorption spectrometry assay with ct-DNA; format: binding; conditions: ct-DNA 1×10^−4 M, [DNA]/[compound] 10:0.5 to 10:2.0
HepG2 cells [3] = experiment: Hoechst33258 assay; conditions: HepG2, 24 h; 2 at 3.5, 7.0, […]; 3 at 7.0, 14.0, 28.0 μM
Experimental: The Hoechst33258 assay is commonly used to measure the changes in cell morphology caused by apoptosis [55]. The HepG2 cells were incubated with 2 (3.5, 7.0, and 14.0 μM) and 3 (7.0, 14.0, and 28.0 μM) for 24 h, respectively, then stained with Hoechst33258 and examined under a fluorescence microscope (Figure 4A).
Hoechst33258 assay Cell cycle-, apoptotic-associated proteins used
The morphology characters of apoptosis of HepG2 western blotting analysis
cells treated with 2 and 3 were carried out by Hoechst Extraction of total protein
33258 staining. About 1×10^6 cells were seeded in six-well
plates, and treated with 2 (3.5, 7.0 and 14.0 μM) and 3 After HepG2 cells incubated with 2 (3.5, 7.0, 14.0
(7.0, 14.0 and 28.0 μM) for 24 h. The cells were fixed with μM) and 3 (7.0, 14.0, 28.0 μM) for 24 h, cells were
then stained with Hoechst 33258 for another 10 min in on ice.

[4] = tested on: HL-7702 normal liver cell; experiment: MTT assay, HL-7702 normal liver cell; format: cell-based; conditions: 48 h, normal liver cell; for inhibitive ratio HL-7702: 20 μmol/L
caspase-3 in HepG2 cells = experiment: Activated caspase-3 by flow cytometry; conditions: HepG2, at IC50, 24 h; control 0.0 %
Experimental: After treated, the cells were collected, and suspended in h at 37 °C in 5% CO2 incubator. The cells were harvested
with annexin V-FITC and PI for 1 h at room temperature cytometer equipped. The results were represented as the
in the dark and immediately analyzed by flow cytometry. percent change on the activity comparing with the control.
Caspase- 3, -8 and -9 activity determinations by our previously report [3].

[5] = tested on: cell cycle regulatory proteins in HepG2 cells; experiment: Western blot of cell cycle regulatory proteins; conditions: HepG2, 24 h
Experimental: HepG2 cells were incubated with 2 and 3 at increasing concentrations for 24 h, and the expression of cell cycle regulatory proteins in the S phase was examined through Western blot analysis.

NCI-H460 = experiment: MTT assay, NCI-H460 cells; format: cell-based, human; conditions: 48 h
HepG2 = experiment: MTT assay, HepG2 cells
HepG2 cells [6] = experiment: Apoptosis assay, Annexin V-FITC/PI flow cytometry; format: cell-based, human; conditions: HepG2, 28.0 μM, 24 h; control […]
T-24 = experiment: MTT assay, T-24 cells; format: cell-based, human; conditions: 48 h
[7] = MTT, mean ± SD from five independent experiments

COc1cc2ccnc3c2c(c1OC)-c1ccccc1C3=O.COc1cc2ccnc3c2c(c1OC)-c1ccccc1C3=O.COc1cc2ccnc3c2c(c1OC)-c1ccccc1C3=O.ClC(Cl)Cl.ClC(Cl)Cl.ClC(Cl)Cl.[Mn+2].[O-][Cl+3]([O-])([O-])[O-].[O-][Cl+3]([O-])([O-])[O-] [Complex 3, [Mn(LY)3](ClO4)2·3CHCl3]
ROS, intracellular Ca2+ and ΔΨm (HepG2 cells [1]): caused overproduction of ROS, rising intracellular Ca^2+, and loss of Δψm
cell population in S phase (HepG2 cells [2]; HepG2, 28.0 μM, 24 h, control 31.23%): 48.70%
effect on cell cycle progression (HepG2 cells [2]; HepG2, 24 h): significant cell cycle arrest at the S phase
inhibitive ratio BEL-7404 (BEL-7404; 20 μmol/L): 35.27±1.15%
IC50 (BEL-7404; [7]): 36.2 ± 1.03 µM
change of CD spectrum of ct-DNA / binding (ct-DNA): significant hypochromism in both the negative and the positive bands
Hoechst33258 fluorescence / apoptotic cell morphology (HepG2 cells [3]): stronger fluorescence in a dose-dependent manner
inhibitive ratio HL-7702 [4]: 32.9%
inhibitive ratio HL-7702 ([4]; listed as 3): 32.97±1.14%
IC50 [4, 7]: 55.4 ± 3.65 µM
proportion of activated caspase-3 cells (caspase-3 in HepG2 cells): 18.8%
proliferating cell nuclear antigen (PCNA) level [5]: decreased
expression of Cdk2, p-Cdc25A, p53, p21 and p27 ([5]; increasing concentrations): increased
inhibitive ratio NCI-H460 (NCI-H460; 20 μmol/L): 54.93±0.86% and 54.93%
IC50 (NCI-H460; [7]): 12.9 ± 3.62 µM
inhibitive ratio Hep-G2 (HepG2; 20 μmol/L, 48 h): 62.99±0.43% and 62.99%
fold increase of cytotoxicity (IC50) comparing with the free LY ligand (HepG2; HepG2 cells): 1.6–3.2 fold
IC50 (HepG2; read-out: IC50 HepG2, MTT, 48 h, mean ± SD from five independent experiments): 14.5 ± 0.69 µM
percentages of cells undergoing apoptosis and necrosis (HepG2 cells [6]): 35.8%
inhibitive ratio T-24 (T-24; 20 μmol/L): 45.42±1.66%
IC50 (T-24; [7]): 15.4 ± 1.81 µM
